Values of other authors as cited in patent publication US20120100192A1, “LOCAL THERAPEUTIC RELEASE DEVICE” (DEXCEL PHARMA TECHNOLOGIES LTD., priority 2009, published 2012).

Key:
alveolar bone loss = settings: 24 months, FBP-treated patient group
[1] = system: naturally occurring periodontitis; settings: application for 6-12 months, beagle dogs
[2] = system: experimentally induced periodontal disease; settings: Macaca mulatta monkeys
periodontal disease [3] = settings: 100 mg/day for two months; standardized radiography, radiopharmaceutical uptake
periodontal disease [4] = settings: topical toothpaste, 1% w/w, twice daily for 12 months

CC(C(=O)O)c1ccc(-c2ccccc2)c(F)c1 (centres unmarked) [FBP, flurbiprofen]
Effect on bone loss (alveolar bone loss): reduction in bone loss
Effect on alveolar bone loss [1]: inhibited alveolar bone loss
Effect on attachment, bleeding on probing and gingival redness [2]: significant inhibition of attachment, bleeding on probing and gingival redness
Effect on bone metabolism (periodontal disease [3]): increased bone metabolism
Effect on bone (periodontal disease [4]): statistically significant bone gain
